Experimental data reported in US20210322339A1, “COMBINATION THERAPY OF COENZYME Q10 AND RADIATION FOR TREATMENT OF GLIOMA” (Berg LLC, priority 2019, published 2021).

How the values were obtained:
[1] = test system: recurrent high-grade gliomas; conditions: patients with recurrent high-grade gliomas; cited from earlier work
U251 glioma cells = test: Human co-culture U251/NHA, imaging and flow cytometry of GFP, superoxide and DAPI; assay type: cell-based
Text: (§1) (A) Strategy of human co-culture experiments. In the human cell model, NHA (non-label) and U251 (GFP-labelled) cells are co-cultured in designated cell density. […] (C) Flow cytometric analysis (scatter plot) of GFP and superoxide for U251/NHA cocultures. Cell populations are characterized based by GFP intensity (GFP-negative, GFP-low, and GFP-high). […] (D) Quantification of cell percentages from (C) illustrating the increased number of GFP-low cells with increased dose. (E) Flow cytometric analysis of superoxide and DAPI for NHA-U251/NHA co-cultures treated with 0, 230, or 460 μM Coenzyme Q10.
(§2) We assessed the effects of Coenzyme Q10 on mitochondrial superoxide production in in vitro cocultures of glioma and non-cancerous cells, i.e. rodent C6 glioma, rodent NIH3T3 non-cancerous fibroblast cells, human U251 glioma, and primary human non-cancerous astrocytes.
In the human cell model, NHA (non-label) and U251 (GFP-labelled) cells were co-cultured at a designated cell density. Phase and fluorescent images of U251/NHA Co-cultures of U251/NHA cells were treated with 0 or 460 μM Coenzyme Q10 and detected by phase and fluorescent imaging. […] See FIG. 2 B. Cells were also analyzed by flow cytometric analysis (scatter plot) of GFP and superoxide for U251/NHA cocultures. Cell populations were characterized based by GFP intensity (GFP-negative, GFP-low, and GFP-high). […] Quantification of cell percentages illustrated the increased number of GFP-low cells with increased dose.

C6 glioma cells = test: Orthotopic C6 glioma rat model, survival and MRI; assay type: in vivo, Wistar rats; conditions: long-term survivor, D27, D34, D102
Procedure: 10^6 C6 glioma cells were implanted into the right striatum of Wistar rats. Four days after implantation, animals started to receive saline (n=32) or 50 mg/kg of Coenzyme Q10 (n=21), twice a day, i.p. for 45 days. Surviving animals remained in the study until Day 102 (A) Kaplan-Meier survival curve of rats during 45 days of treatment. Over 25% of rats treated with Coenzyme Q10 survived 45 days, considered long-term survival in this model (p<0.01, log rank test). (B) Serial MRI images of a long-term survivor (D27, D34, D102). […] Far right panel is a coronal section of the long-term survivor.
10^6 C6 glioma cells were implanted into the right striatum of Wistar rats. Four days after implantation, animals started to receive saline (n=32) or 50 mg/kg of Coenzyme Q10 (n=21), twice a day, i.p. for 45 days. Surviving animals remained in the study until Day 102.

[2] = test system: NHA (normal human astrocytes); test: Human co-culture U251/NHA, flow cytometry of superoxide in non-cancerous cells; assay type: cell-based; conditions: 0, 230 or 460 μM
Text: as §1, §2
In the human cell model, NHA (non-label) and U251 (GFP-labelled) cells were co-cultured at a designated cell density. Phase and fluorescent images of U251/NHA Co-cultures of U251/NHA cells were treated with 0 or 460 μM Coenzyme Q10 and detected by phase and fluorescent imaging. […] See FIG. 2 B. Cells were also analyzed by flow cytometric analysis (scatter plot) of GFP and superoxide for U251/NHA cocultures. […] Quantification of cell percentages illustrated the increased number of GFP-low cells with increased dose.

C6 cells = test: Implanted luciferase-labeled C6 glioma rat model with radiotherapy, survival; assay type: in vivo, Sprague Dawley rats
Procedure: Methodology: 1×10^6 luciferase labeled C6 cells were implanted into the right striatum of Sprague Dawley rats. 4 days post-implantation, 50 rats were randomized into one of four groups:
(i) Saline injection ip bid; (12 rats)
(ii) Coenzyme Q10 50 mg/kg ip bid to continue up to 35 days; (12 rats)
(iii) 12 Gy radiotherapy (RT) to be administered on Day 8 post-implant with saline injection (12 rats); and
(iv) Coenzyme Q10+RT (14 rats).
Tumor-bearing rats were monitored until death or Day 50.

high-grade glioma = conditions: one patient, after 6 weeks in the study
Procedure: The patients in this study were administered a CoQ10-lipid conjugate in which oxidized CoQ10 was incorporated into a mixture of mitochondria compatible lipids, enabling delivery of supraphysiological concentrations of CoQ10 to the mitochondria.
This study was a phase I trial of Coenzyme Q10 to assess for safety and tolerability of Coenzyme Q10 with vitamin K in patients with HGGs that were progressive after a bevacizumab (BEV) containing regimen. […] Therefore, this study used 10 mg vitamin K prophylactically.
Design: Modified toxicity probability interval design (mTPI) enrolling patients sequentially and monitoring through a 28-day DLT period. 1 dose escalation and 2 dose de-escalations allowed.
Key Inclusion Criteria: HGG (GB, Gliosarcoma, AA, AO) sp radiation with TMZ in recurrence after treatment with BEV. Evidence of leptomeningeal spread was allowed. >18 w KPS>60. Normal coagulation labs.
Key Exclusion Criteria: History of spontaneous or tumor related intracerebral hemorrhage. Uncontrolled coagulopathies or use of anti-coagulants.

[3] = test system: C6 glioma and NIH3T3 cells; test: Rodent co-culture of C6-GFP glioma and NIH3T3 cells, cell number and Mitosox superoxide by flow cytometry; assay type: cell-based
Procedure: FIGS. 2A-2F show differential induction of mitochondrial superoxide by Coenzyme Q10 in non-cancer vs. neoplastic cells. (A) Strategy of rodent co-culture experiments using glioma and non-tumor cells. The rodent cell co-culture consisted of fibroblastic NIH3T3 and glioma C6-GFP cells. (B) NIH3T3 and C6 cells were initially seeded in 1:1 ratio. After 72 h or 144 h incubation with Coenzyme Q10 (0 μM, […], 115 μM, 230 μM, […] or 460 μM), the number of C6 or NIH3T3 cells in co-culture is generated by flow-cytometry. (C) Images were taken at 72 hrs post-dosing (0 μM, 230 μM or 460 μM) using a Leica CTR5000. […] Percentage of cells harboring positive or negative level of superoxide from C6 (GFP+) or NIH3T3 (GFP−) population are recorded by flow cytometry (D) and presented as table of summary (E). […]
as §2
For the rodent cells, NIH3T3 and C6 cells were initially seeded in a 1:1 ratio. […] Superoxide level was detected by Mitosox staining. The percentage of cells harboring positive or negative levels of superoxide from C6 (GFP+) or NIH3T3 (GFP−) populations were determined by flow cytometry.

Row | Compound | response rates [1] | DAPI levels (U251 glioma cells; 0, 230 or 460 μM) | superoxide values in GFP-low and GFP-high cells (U251 glioma cells; 0, 230 or 460 μM) | glioma cell levels by phase and fluorescent imaging (U251 glioma cells; 460 μM, U251/NHA co-culture) | superoxide level of U251 glioma cells compared to human astrocytes upon treatment (U251 glioma cells; basal difference 1.5-fold) | percentage of GFP-low relative to GFP-high cells (U251 glioma cells; with increasing dose, flow cytometry) | tumor size over time on serial MRI after treatment was withdrawn (C6 glioma cells) | superoxide values in GFP-negative (NHA) cells [2] | median survival (C6 cells; Coenzyme Q10 50 mg/kg ip bid up to 35 days, 12 Gy RT on Day 8, monitored to Day 50, p<0.001) | Long Term Survivors (%) (C6 cells; survived for 45 days) | glucose uptake by FDG-PET in the area of prior surgery (high-grade glioma) | dosage of peak effect of differences in superoxide levels and cell growth ([3]; C6/NIH3T3 co-culture) | induction of mitochondrial superoxide versus non-neoplastic cells ([3]; C6 and U251 cells exposed to Coenzyme Q10)
1 | Bevacizumab: a monoclonal antibody against vascular endothelial growth factor (VEGF) | 32-62% | – | – | – | – | – | – | – | – | – | – | – | –
2 | COC1=C(OC)C(=O)C(C/C=C(\C)CC/C=C(\C)CC/C=C(\C)CC/C=C(\C)CC/C=C(\C)CC/C=C(\C)CC/C=C(\C)CC/C=C(\C)CC/C=C(\C)CCC=C(C)C)=C(C)C1=O [Coenzyme Q10] | – | only significantly elevated in GFP-low cells | increase in superoxide values | decreased glioma cell levels with a relative sparing of NHA cells | over 4 fold | increased percentage of GFP-low relative to GFP-high cells | continued shrinkage of the tumor over time | insignificant changes | 19 days | 5/12 (42%) | decreased glucose uptake | 230 | significantly more induction of mitochondrial superoxide than non-neoplastic cells
